{"source": "patent US8628806B2", "about": "“Hypolipidemic composition and its use” (Hangzhou Minsheng Pharmaceutical Co., Ltd., priority 2006, dated 2014)", "key": {"hyperlipidemia mice [1]": {"tested_on": "hyperlipidemia mice", "experiment": "Example 14 lipid lowering screening test in yolk emulsion hyperlipidemia mice", "type": "in vivo", "conditions": "hyperlipidemia ICR mice; ig once daily 7 days; dose 20 mg/kg; X±SD, 10 animals", "procedure": "As described before, the test medicine is the mixture of H series and B series in the ratio H:B (3:1). Recommended dose (for animal) is: […] the recommended does is 200 mg/kg. • Test medicine 1: H1+B1, ig 0.2 ml/10 g; • Test medicine 2: H2+B1, ig 0.2 ml/10 g; • Test medicine 3: H3+B1, ig 0.2 ml/10 g; • Test medicine 4: H4+B1, ig 0.2 ml/10 g; • Test medicine 5: H5+B1, ig 0.2 ml/10 g; • Test medicine 6: H1+B2, ig 0.2 ml/10 g; • Test medicine 7: H2+B2, ig 0.2 ml/10 g; • Test medicine 8: H3+B2, ig 0.2 ml/10 g; • Test medicine 9: H4+B2, ig 0.2 ml/10 g; • Test medicine 10: H5+B2, ig 0.2 ml/10 g; • Test medicine 11: HB ig 0.2 ml/10 g.\n130 SPF ICR mice were employed with the body weight 20±2 g, half are male and the other half are female. Provided by Zhejiang Province Experimental Animal Center, Licence: SCXK(ZHE)2003-0001\n(§1) 90 ml yolk and 30 ml physiological Saline were mixed thoroughly in electric mixer to form emulsion, which was stored at 4° C. for further use.\n(§2) 140 ICR mice were randomly divided into 14 groups: test medicine 1, test medicine 2, test medicine 3, test medicine 4, test medicine 5, test medicine 6, test medicine 7, test medicine 8, test medicine 9, test medicine 10, test medicine 11, postive control group (Zocor), model control group and normal control group, 10 mice for each group, half male and half female. Once daily for a continous 7-day period, the model control group and normal control group were provided with same volume of distilled water, while the other groups were administered with medicines by gastric perfusion. 2 hours after the last gastric perfusion, except of the normal control group, fresh yolk emulsion was intraperitoneally injected to the rest 13 groups of mice, 0.5 ml for a single animal. After 20 hours, eye ball was plucked and blood was collected, make sure 12 hours fasting before the collection. The content of total cholesterol (TC), triglyceride (TG) and high density lipoprotein (HDL-C) of the serum were measured.\nEXCEL was employed to analyze the significant difference between the groups. The result is shown in X±SD."}, "hyperlipidemia mice [2]": {"tested_on": "hyperlipidemia mice", "experiment": "Example 16 dose screening of H1+B1 (4:1) in yolk emulsion hyperlipidemia mice", "type": "in vivo, ICR mice", "conditions": "dose 20 mg/kg ig once daily 7 days; X±SD, 10 animals", "procedure": "H1 is peony extract obtained from Example 1. B1 is Codonopsis extract obtained from Example 7. The test medicines are mixtures of H1 and B1 with the ratio of 4:1 (the weight ratio of peony extract and Codonopsis extract is 2.7:1).\n80 SPF ICR mice were employed with the body weight 20±2 g, half are male and the other half are female. Provided by Zhejiang Province Experimental Animal Center, Licence: SCXK(ZHE)2003-0001\nas §1\nas §2, with “80 ICR” for “140 ICR”, “into 8” for “into 14”, “5,” for “5, test medicine 6, test medicine 7, test medicine 8, test medicine 9, test medicine 10, test medicine 11,”, “a continuous” for “a continous”, “except for” for “except of”, “rest 7” for “rest 13”\nT test was employed to analyze the significant difference between the groups. The result is shown in X±SD."}, "hyperlipidemia mice [3]": {"tested_on": "hyperlipidemia mice", "experiment": "Example 15 hypolipidemic effect of peony/Codonopsis extract ratios in yolk emulsion hyperlipidemia mice", "type": "in vivo", "conditions": "hyperlipidemia ICR mice", "procedure": "Group H1 and B1 were mixed in different ratios (see Table 8) and formulated into different test medicines. Recommended dose (animal): H1+B1=200 mg/kg body weight, ig dose is 0.2 ml/10 g body weight. [table] 100 SPF ICR mice were employed with the body weight 20±2 g, half are male and the other half are female. Provided by Zhejiang Province Experimental Animal Center, Licence: SCXK(ZHE)2003-0001 90 ml yolk and 30 ml physiological Saline were mixed thoroughly in electric mixer to form emulsion, which was stored at 4° C. for further use. […]: test medicine 1-23 groups, postive control group (Zocor), model control group and normal control group, 10 mice for each group, half male and half female. […] The content of total cholesterol (TC), triglyceride (TG) and high density lipoprotein (HDL-C) of the serum were measured. T test was employed to analyze the significant difference between the groups. The result is shown in X±SD."}, "[4]": {"conditions": "ig once daily 7 days, dose 20 mg/kg, X±SD, 10 animals"}, "[5]": {"conditions": "test medicines 200 mg/kg, positive control 20 mg/kg, ig 7 days"}}, "data": [{"molecule": "CCC(C)(C)C(=O)O[C@H]1C[C@@H](C)C=C2C=C[C@H](C)[C@H](CC[C@@H]3C[C@@H](O)CC(=O)O3)[C@H]21", "note": "[positive control group]", "values": [{"measurement": "HDL-C (serum high density lipoproteincholesterol content)", "setting": "hyperlipidemia mice [1]", "result": "1.39 ± 0.23", "unit": "mmol/L"}, {"measurement": "HDL-C/TC", "setting": "hyperlipidemia mice [1]", "result": "0.18 ± 0.05"}, {"measurement": "TC (total serum cholesterol content)", "setting": "hyperlipidemia mice [1]", "result": "8.58 ± 4.18", "unit": "mmol/L"}, {"measurement": "TG (serum triglyceride content)", "setting": "hyperlipidemia mice [1]", "result": "7.78 ± 5.36", "unit": "mmol/L"}, {"measurement": "HDL-C (serum high density lipoproteincholesterol content)", "setting": "hyperlipidemia mice [2]", "result": "1.35 ± 0.15", "unit": "mmol/L"}, {"measurement": "HDL-C/TC", "setting": "hyperlipidemia mice [2]", "result": "0.26 ± 0.06"}, {"measurement": "TC (total serum cholesterol content)", "setting": "hyperlipidemia mice [2]", "result": "5.97 ± 2.40", "unit": "mmol/L"}, {"measurement": "TG (serum triglyceride content)", "setting": "hyperlipidemia mice [2]", "result": "4.31 ± 3.28", "unit": "mmol/L"}, {"measurement": "HDL-C (serum high density lipoproteincholesterol content)", "setting": "hyperlipidemia mice [3]; [4]", "result": "1.59 ± 0.13", "unit": "mmol/L"}, {"measurement": "HDL-C/TC", "setting": "hyperlipidemia mice [3]; [4]", "result": "0.22 ± 0.08"}, {"measurement": "TC (total serum cholesterol content)", "setting": "hyperlipidemia mice [3]; [4]", "result": "8.03 ± 3.12", "unit": "mmol/L"}, {"measurement": "TG (serum triglyceride content)", "setting": "hyperlipidemia mice [3]; [4]", "result": "8.57 ± 4.20", "unit": "mmol/L"}, {"measurement": "TC compared with model control group", "setting": "hyperlipidemia mice [3]; [5]", "result": "lower TC, with significant difference (P<0.05)"}, {"measurement": "TG compared with model control group", "setting": "hyperlipidemia mice [3]; [5]", "result": "lower TG, with significant difference (P<0.05)"}]}]}
